Measured values reported in patent US8058475B2, “Substituted cyclohexylmethyl compounds” (Gruenenthal GmbH, priority 2005, dated 2011).

Target: human μ-opiate receptor (Homo sapiens, UniProt P35372)
Experiment: Affinity for the human μ-opiate receptor ([3H]-naloxone displacement, SPA, CHO-K1 membrane preparation)
Format: binding
Settings: for inhibition at 1 µM: read-out: μ-Opioid receptor, % inhibition [1 μM]; for Ki: read-out: μ-Opioid receptor, Ki

Sequence of human μ-opiate receptor (P35372 whole entry): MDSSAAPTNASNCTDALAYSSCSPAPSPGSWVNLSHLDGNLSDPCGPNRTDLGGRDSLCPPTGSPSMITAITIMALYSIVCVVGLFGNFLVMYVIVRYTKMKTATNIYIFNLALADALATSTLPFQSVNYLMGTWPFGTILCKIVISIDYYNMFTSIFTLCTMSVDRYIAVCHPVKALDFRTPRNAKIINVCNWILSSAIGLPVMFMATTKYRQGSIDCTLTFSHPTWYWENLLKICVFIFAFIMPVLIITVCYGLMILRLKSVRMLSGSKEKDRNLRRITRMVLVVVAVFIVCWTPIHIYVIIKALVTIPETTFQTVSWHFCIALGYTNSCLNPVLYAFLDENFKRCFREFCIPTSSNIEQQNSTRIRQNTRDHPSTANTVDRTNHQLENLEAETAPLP

Compound | inhibition at 1 µM | Ki
COc1cccc(C(=O)NCC2CCC(C(c3ccc(Cl)cc3)N(C)C)CC2)c1 (stereo not drawn) [compound 393, N-{4-[(4-chloro-phenyl)-dimethylamino-methyl]-cyclohexylmethyl}-3-methoxy-benzamide] | 80% | 44 nM
CN(C)C(c1ccc(Cl)cc1)C1CCC(CNC(=O)c2ccccc2Br)CC1 (stereo not drawn) [compound 394, 2-bromo-N-{4-[(4-chloro-phenyl)-dimethylamino-methyl]-cyclohexylmethyl}-benzamide] | 79% | 48 nM
CN(C)C(c1ccc(Cl)cc1)C1CCC(CCNC(=O)c2ccccc2Br)CC1 (stereo not drawn) [compound 395, 2-bromo-N-(2-{4-[(4-chloro-phenyl)-dimethylamino-methyl]-cyclohexyl}-ethyl)-benzamide] | 81% | 46 nM
CN(C)C(c1cccc(F)c1)C1CCC(CCNC(=O)c2ccccc2Br)CC1 (stereo not drawn) [compound 396, 2-bromo-N-(2-{4-[dimethylamino-(3-fluoro-phenyl)-methyl]-cyclohexyl}-ethyl)-benzamide] | 97% | 12 nM
CN(C)C(c1ccc(Cl)cc1)C1CCC(CCNC(=O)c2cccc(Cl)c2)CC1 (stereo not drawn) [compound 399, 3-chloro-N-(2-{4-[(4-chloro-phenyl)-dimethylamino-methyl]-cyclohexyl}-ethyl)-benzamide] | 80% | 110 nM
CN(C)C(c1ccccc1)C1CCC(CCNC(=O)c2ccccc2Cl)CC1 (stereo not drawn) [compound 402, 2-chloro-N-{2-[4-(dimethylamino-phenyl-methyl)-cyclohexyl]-ethyl}-benzamide] | 96% | 7.9 nM
CN(C)C(c1ccc(Cl)cc1)C1CCC(CCNC(=O)c2ccccc2Cl)CC1 (stereo not drawn) [compound 403, 2-chloro-N-(2-{4-[(4-chloro-phenyl)-dimethylamino-methyl]-cyclohexyl}-ethyl)-benzamide] | 81% | 74 nM
CN(C)C(c1cccc(F)c1)C1CCC(CCNC(=O)c2ccccc2Cl)CC1 (stereo not drawn) [compound 404, 2-chloro-N-(2-{4-[dimethylamino-(3-fluoro-phenyl)-methyl]-cyclohexyl}-ethyl)-benzamide] | 97% | 19 nM
CN(C)C(c1ccccc1)C1CCC(CCNC(=O)c2ccc(Cl)cc2)CC1 (stereo not drawn) [compound 405, 4-chloro-N-{2-[4-(dimethylamino-phenyl-methyl)-cyclohexyl]-ethyl}-benzamide] | 88% | 25 nM
CN(C)C(c1cccc(F)c1)C1CCC(CCNC(=O)c2ccc(Cl)cc2)CC1 (stereo not drawn) [compound 406, 4-chloro-N-(2-{4-[dimethylamino-(3-fluoro-phenyl)-methyl]-cyclohexyl}-ethyl)-benzamide] | 81% | 40 nM
CN(C)C(c1ccccc1)C1CCC(CCNC(=O)c2ccc(F)cc2)CC1 (stereo not drawn) [compound 407, N-{2-[4-(dimethylamino-phenyl-methyl)-cyclohexyl]-ethyl}-4-fluoro-benzamide] | 87% | 48 nM
CN(C)C(c1ccc(Cl)cc1)C1CCC(CCNC(=O)c2ccc(F)cc2)CC1 (stereo not drawn) [compound 408, N-(2-{4-[(4-chloro-phenyl)-dimethylamino-methyl]-cyclohexyl}-ethyl)-4-fluoro-benzamide] | 82% | 12 nM
CN(C)C(c1cccc(F)c1)C1CCC(CCNC(=O)c2ccc(F)cc2)CC1 (stereo not drawn) [compound 409, N-(2-{4-[dimethylamino-(3-fluoro-phenyl)-methyl]-cyclohexyl}-ethyl)-4-fluoro-benzamide] | 84% | 28 nM
CN(C)C(c1ccccc1)C1CCC(CCNC(=O)c2ccccc2F)CC1 (stereo not drawn) [compound 410, N-{2-[4-(dimethylamino-phenyl-methyl)-cyclohexyl]-ethyl}-2-fluoro-benzamide] | 88% | 5.8 nM
CN(C)C(c1cccc(F)c1)C1CCC(CCNC(=O)c2ccccc2F)CC1 (stereo not drawn) [compound 411, N-(2-{4-[dimethylamino-(3-fluoro-phenyl)-methyl]-cyclohexyl}-ethyl)-2-fluoro-benzamide] | 99% | 11 nM
Cc1cccc(C(=O)NCCC2CCC(C(c3cccc(F)c3)N(C)C)CC2)c1 (stereo not drawn) [compound 412, N-(2-{4-[dimethylamino-(3-fluoro-phenyl)-methyl]-cyclohexyl}-ethyl)-3-methyl-benzamide] | 93% | 32 nM
CN(C)C(c1ccccc1)C1CCC(CCNC(=O)c2c(Cl)cccc2Cl)CC1 (stereo not drawn) [compound 413, 2,6-dichloro-N-{2-[4-(dimethylamino-phenyl-methyl)-cyclohexyl]-ethyl}-benzamide] | 81% | 31 nM
COc1ccccc1C(=O)NCCC1CCC(C(c2ccccc2)N(C)C)CC1 (stereo not drawn) [compound 414, N-{2-[4-(dimethylamino-phenyl-methyl)-cyclohexyl]-ethyl}-2-methoxy-benzamide] | 99% | 4.6 nM
COc1ccccc1C(=O)NCCC1CCC(C(c2cccc(F)c2)N(C)C)CC1 (stereo not drawn) [compound 415, N-(2-{4-[dimethylamino-(3-fluoro-phenyl)-methyl]-cyclohexyl}-ethyl)-2-methoxy-benzamide] | 99% | 5.1 nM
CN(C)C(c1ccccc1)C1CCC(CCNC(=O)c2ccc(Cl)c(Cl)c2)CC1 (stereo not drawn) [compound 416, 3,4-dichloro-N-{2-[4-(dimethylamino-phenyl-methyl)-cyclohexyl]-ethyl}-benzamide] | 86% | 19 nM
Cc1ccccc1C(=O)NCCC1CCC(C(c2ccc(Cl)cc2)N(C)C)CC1 (stereo not drawn) [compound 419, N-(2-{4-[(4-chloro-phenyl)-dimethylamino-methyl]-cyclohexyl}-ethyl)-2-methyl-benzamide] | 86% | 32 nM
Cc1ccccc1C(=O)NCCC1CCC(C(c2cccc(F)c2)N(C)C)CC1 (stereo not drawn) [compound 420, N-(2-{4-[dimethylamino-(3-fluoro-phenyl)-methyl]-cyclohexyl}-ethyl)-2-methyl-benzamide] | 94% | 16 nM
CN(C)C(c1ccccc1)C1CCC(CCNC(=O)c2ccc(C#N)cc2)CC1 (stereo not drawn) [compound 421, 4-cyano-N-{2-[4-(dimethylamino-phenyl-methyl)-cyclohexyl]-ethyl}-benzamide] | 80% | 91 nM
CN(C)C(c1cccs1)C1CCC(CCNC(=O)c2cccc(Cl)c2)CC1 (stereo not drawn) [compound 424, 3-chloro-N-{2-[4-(dimethylamino-thiophen-2-yl-methyl)-cyclohexyl]-ethyl}-benzamide] | 99% | 2.7 nM
CN(C)C(c1cccs1)C1CCC(CCNC(=O)c2ccccc2Cl)CC1 (stereo not drawn) [compound 425, 2-chloro-N-{2-[4-(dimethylamino-thiophen-2-yl-methyl)-cyclohexyl]-ethyl}-benzamide] | 94% | 6 nM
CN(C)C(c1cccs1)C1CCC(CCNC(=O)c2ccc(F)cc2)CC1 (stereo not drawn) [compound 426, N-{2-[4-(dimethylamino-thiophen-2-yl-methyl)-cyclohexyl]-ethyl}-4-fluoro-benzamide] | 99% | 5.8 nM
CN(C)C(c1ccc(F)cc1)C1CCC(CCNC(=O)c2ccccc2F)CC1 (stereo not drawn) [compound 427, N-(2-{4-[dimethylamino-(4-fluoro-phenyl)-methyl]-cyclohexyl}-ethyl)-2-fluoro-benzamide] | 84% | 40 nM
